These results are taken from patent publication US12281122B1, “PI3K inhibitors” (Cogent Biosciences, Inc., priority 2023, dated 2025).

Assay [1] deals with T47D (PI3Kα-H1047R) cell line. As to the kind of experiment: HTRF phospho-AKT(S473) cell assay in T47D cells. Type of assay: cell-based, human. The gist of the method: (§1)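 Cells plated overnight (T47D in RPMI/10% FBS/0.2 units/mL insulin; SKBR3 in McCoy's 5A/10% FBS), then given 12-point 1:3 compound series (top 5 μM T47D, 10 μM SKBR3; ≤0.5% DMSO) for 2 h at 37° C. SKBR3 stimulated with 70 ng/ml PDGF-BB for final 15 min. Lysate pAKT(S473) by HTRF; IC50 calculated.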
(In general: In TR-FRET formats the signal depends on donor and acceptor labels being close together.)

For assay [2], the system named is SKBR3 (PI3Kα-Wild Type) cell line. As to the kind of experiment: HTRF phospho-AKT(S473) cell assay in SKBR3 cells. Type of assay: cell-based, human. The method in brief: as §1
Where [3] appears, read: Homo sapiens; HTRF phospho-AKT(S473), T47D (PI3Kα-H1047R) cells, 2 hours compound incubation.
Setting [4] is: Homo sapiens, SK-BR-3; HTRF phospho-AKT(S473), SKBR3 (PI3Kα-Wild Type) cells, 2 hours compound incubation, PDGF-BB stimulated.
Setting [5] is: Homo sapiens; T47D (PI3Kα-H1047R) cells, HTRF phospho-AKT(S473), 2 hours compound incubation.
Where [6] appears, read: Homo sapiens, SK-BR-3; SKBR3 (PI3Kα-Wild Type) cells, HTRF phospho-AKT(S473), 2 hours compound incubation, PDGF-BB stimulated.

For `Cc1cc([C@@H](C)Nc2ccc(Cl)nc2C(=O)NS(C)(=O)=O)c2nc(N3CCC(Oc4ccccn4)CC3)n(C)c(=O)c2c1` [Compound 694, (R)-6-chloro-3-((1-(3,6-dimethyl-4-oxo-2-(4-(pyridin-2-yloxy)piperidin-1-yl)-3,4-dihydroquinazolin-8-yl)ethyl)amino)-N-(methylsulfonyl) picolinamide], the IC50 – broadly, the midpoint of a concentration-inhibition curve – was 250 to 500 nM in assay [1] (setting [3]) and not below 5000 nM in assay [2] (setting [4]).

With `CCn1c(N2C[C@@H]3[C@H](C2)[C@H]3c2cnc(C)cn2)nc2c([C@@H](C)Nc3ccc(Cl)nc3C(=O)NS(C)(=O)=O)cc(C)cc2c1=O` [Compound 572, 6-chloro-3-(((R)-1-(3-ethyl-6-methyl-2-((1R,5S,6R)-6-(5-methylpyrazin-2-yl)-3-azabicyclo[3.1.0]hexan-3-yl)-4-oxo-3,4-dihydroquinazolin-8-yl)ethyl)amino)-N-(methylsulfonyl) picolinamide], the IC50 in assay [1] (setting [3]) is less than 250 nM; in assay [2] (setting [4]) it was 1000 to 5000 nM.

As for `Cc1cc([C@@H](C)Nc2ccc(Cl)nc2C(=O)NS(C)(=O)=O)c2nc(N3CC[C@H](N(C)c4ncc(F)cn4)C3)n(C)c(=O)c2c1` [Compound 739, 6-chloro-3-(((R)-1-(2-((S)-3-((5-fluoropyrimidin-2-yl)(methyl)amino)pyrrolidin-1-yl)-3,6-dimethyl-4-oxo-3,4-dihydroquinazolin-8-yl)ethyl)amino)-N-(methylsulfonyl) picolinamide], the results for the IC50 in assay [1] (setting [3]) and in assay [2] (setting [4]) were 250 to 500 nM and not below 5000 nM, respectively.

For the compound `Cc1cc([C@@H](C)Nc2ccc(Cl)nc2C(=O)NS(C)(=O)=O)c2nc(N3C[C@H]4C[C@@H](c5cnn(C)c5)[C@@H]3C4)n(C)c(=O)c2c1` [Compound 321, 6-chloro-3-(((R)-1-(3,6-dimethyl-2-((1S,4S,6RS)-6-(1-methyl-1H-pyrazol-4-yl)-2-azabicyclo[2.2.1]heptan-2-yl)-4-oxo-3,4-dihydroquinazolin-8-yl)ethyl)amino)-N-(methylsulfonyl) picolinamide], the IC50 fell in the range of 250 to 500 nM in assay [1] (setting [5]) and 1000 to 5000 nM in assay [2] (setting [6]).

As for `CCn1c(N2C[C@@H]3[C@H](C2)[C@H]3c2ccn(C)n2)nc2c([C@@H](C)Nc3ccc(Cl)nc3C(=O)NS(C)(=O)=O)cc(C)cc2c1=O` [Compound 432, 6-chloro-3-(((R)-1-(3-ethyl-6-methyl-2-((1R,5S,6R)-6-(1-methyl-1H-pyrazol-3-yl)-3-azabicyclo[3.1.0]hexan-3-yl)-4-oxo-3,4-dihydroquinazolin-8-yl)ethyl)amino)-N-(methylsulfonyl) picolinamide], the results for the IC50 in assay [1] (setting [5]) and in assay [2] (setting [6]) were less than 250 nM and 1000 to 5000 nM, respectively.

With `Cc1cc([C@@H](C)Nc2ccc(Cl)nc2C(=O)NS(C)(=O)=O)c2nc(N3CCN(c4nc(C)ncc4F)CC3)n(C)c(=O)c2c1` [Compound 575, (R)-6-chloro-3-((1-(2-(4-(5-fluoro-2-methylpyrimidin-4-yl)piperazin-1-yl)-3,6-dimethyl-4-oxo-3,4-dihydroquinazolin-8-yl)ethyl)amino)-N-(methylsulfonyl) picolinamide], the IC50 is less than 250 nM in assay [1] (setting [3]) and 1000 to 5000 nM in assay [2] (setting [4]).

Turning to `Cc1cc([C@@H](C)Nc2ccc(Cl)nc2C(=O)NS(C)(=O)=O)c2nc(N3[C@@H]4CC[C@H]3C[C@@H](n3cc(C)cn3)C4)n(C)c(=O)c2c1` [Compound 482, 6-chloro-3-(((R)-1-(3,6-dimethyl-2-((1R,3R,5S)-3-(4-methyl-1H-pyrazol-1-yl)-8-azabicyclo[3.2.1]octan-8-yl)-4-oxo-3,4-dihydroquinazolin-8-yl)ethyl)amino)-N-(methylsulfonyl) picolinamide], the figures for the IC50 in assay [1] (setting [3]) and in assay [2] (setting [4]) were less than 250 nM and 1000 to 5000 nM, respectively.

In the case of `Cc1cc([C@@H](C)Nc2ccc(Cl)nc2C(=O)NS(C)(=O)=O)c2nc(-c3ccc4nn(CC(F)(F)F)cc4c3)n(C)c(=O)c2c1` [Compound 784, (R)-6-chloro-3-((1-(3,6-dimethyl-4-oxo-2-(2-(2,2,2-trifluoroethyl)-2H-indazol-5-yl)-3,4-dihydroquinazolin-8-yl)ethyl)amino)-N-(methylsulfonyl) picolinamide], the IC50 in assay [1] (setting [3]) is less than 250 nM; in assay [2] (setting [4]), 1000 to 5000 nM.

Consider `Cc1cc([C@@H](C)Nc2ccc(Cl)nc2C(=O)NS(C)(=O)=O)c2nc(N3C[C@@H]4[C@H](C3)[C@H]4c3nc(C)n(C(F)F)n3)n(C)c(=O)c2c1` [Compound 642, 6-chloro-3-(((R)-1-(2-((1R,5S,6R)-6-(1-(difluoromethyl)-5-methyl-1H-1,2,4-triazol-3-yl)-3-azabicyclo[3.1.0]hexan-3-yl)-3,6-dimethyl-4-oxo-3,4-dihydroquinazolin-8-yl)ethyl)amino)-N-(methylsulfonyl) picolinamide], for which the IC50 was 250 to 500 nM in assay [1] (setting [3]) and not below 5000 nM in assay [2] (setting [4]).

For the compound `Cc1cc([C@@H](C)Nc2ccc(Cl)nc2C(=O)NS(C)(=O)=O)c2nc(N3CCC(c4nc(C)n(C(F)F)n4)CC3)n(C)c(=O)c2c1` [Compound 723, (R)-6-chloro-3-((1-(2-(4-(1-(difluoromethyl)-5-methyl-1H-1,2,4-triazol-3-yl)piperidin-1-yl)-3,6-dimethyl-4-oxo-3,4-dihydroquinazolin-8-yl)ethyl)amino)-N-(methylsulfonyl) picolinamide], the IC50 in assay [1] (setting [3]) lay within 250 to 500 nM; in assay [2] (setting [4]), 1000 to 5000 nM.

For `Cc1cc([C@@H](C)Nc2ccc(Cl)nc2C(=O)NS(C)(=O)=O)c2nc(N3CCC(c4cc(N)n(C)n4)CC3)n(C)c(=O)c2c1` [Compound 338, (R)-3-((1-(2-(4-(5-amino-1-methyl-1H-pyrazol-3-yl)piperidin-1-yl)-3,6-dimethyl-4-oxo-3,4-dihydroquinazolin-8-yl)ethyl)amino)-6-chloro-N-(methylsulfonyl) picolinamide], the values for the IC50 in assay [1] (setting [5]) and in assay [2] (setting [6]) were less than 250 nM and 1000 to 5000 nM, respectively.

Consider `COc1ncc([C@H]2[C@@H]3CN(c4nc5c([C@@H](C)Nc6ccc(Cl)nc6C(=O)NS(C)(=O)=O)cc(C)cc5c(=O)n4C)C[C@@H]32)cn1` [Compound 483, 6-chloro-3-(((R)-1-(2-((1R,5S,6S)-6-(2-methoxypyrimidin-5-yl)-3-azabicyclo[3.1.0]hexan-3-yl)-3,6-dimethyl-4-oxo-3,4-dihydroquinazolin-8-yl)ethyl)amino)-N-(methylsulfonyl) picolinamide], for which the IC50 in assay [1] (setting [3]) was less than 250 nM; in assay [2] (setting [4]), 1000 to 5000 nM.

`Cc1cc([C@@H](C)Nc2ccc(Cl)nc2C(=O)NS(C)(=O)=O)c2nc(N3Cc4cn(-c5ncc(C#N)cc5C)nc4C3)n(C)c(=O)c2c1` [Compound 698, (R)-6-chloro-3-((1-(2-(2-(5-cyano-3-methylpyridin-2-yl)-2,6-dihydropyrrolo[3,4-c]pyrazol-5(4H)-yl)-3,6-dimethyl-4-oxo-3,4-dihydroquinazolin-8-yl)ethyl)amino)-N-(methylsulfonyl) picolinamide]: the IC50 in assay [1] (setting [3]) fell in the range of 250 to 500 nM; in assay [2] (setting [4]), 1000 to 5000 nM.

For `Cc1cc([C@@H](C)Nc2ccc(Cl)nc2C(=O)NS(C)(=O)=O)c2nc(N3CCC(c4cc(C5CC5)[nH]n4)CC3)n(C)c(=O)c2c1` [Compound 511, (R)-6-chloro-3-((1-(2-(4-(5-cyclopropyl-1H-pyrazol-3-yl)piperidin-1-yl)-3,6-dimethyl-4-oxo-3,4-dihydroquinazolin-8-yl)ethyl)amino)-N-(methylsulfonyl) picolinamide], the IC50 in assay [1] (setting [3]) was 500 to 1000 nM; in assay [2] (setting [4]) it was not below 5000 nM.

Turning to `Cc1cc([C@@H](C)Nc2ccc(Cl)nc2C(=O)NS(C)(=O)=O)c2nc(N3Cc4cn(CCO)nc4C3)n(C)c(=O)c2c1` [Compound 149, (R)-6-chloro-3-((1-(2-(2-(2-hydroxyethyl)-2,6-dihydropyrrolo[3,4-c]pyrazol-5(4H)-yl)-3,6-dimethyl-4-oxo-3,4-dihydroquinazolin-8-yl)ethyl)amino)-N-(methylsulfonyl) picolinamide], the IC50 in assay [1] (setting [5]) fell in the range of 250 to 500 nM; in assay [2] (setting [6]), 1000 to 5000 nM.

Regarding `Cc1cc([C@@H](C)Nc2ccc(Cl)nc2C(=O)NS(C)(=O)=O)c2nc(N3CCC4(CCN(c5ccn(C)n5)CC4)C3)n(C)c(=O)c2c1` [Compound 358, (R)-6-chloro-3-((1-(3,6-dimethyl-2-(8-(1-methyl-1H-pyrazol-3-yl)-2,8-diazaspiro[4.5]decan-2-yl)-4-oxo-3,4-dihydroquinazolin-8-yl)ethyl)amino)-N-(methylsulfonyl) picolinamide], the IC50 in assay [1] (setting [5]) was less than 250 nM; in assay [2] (setting [6]), 1000 to 5000 nM.

For the compound `Cc1cc([C@@H](C)Nc2ccc(Cl)nc2C(=O)NS(C)(=O)=O)c2nc(N3C[C@@H]4[C@H](C3)[C@H]4n3ccc(C)n3)n(C)c(=O)c2c1` [Compound 416, 6-chloro-3-(((R)-1-(3,6-dimethyl-2-((1R,5S,6S)-6-(3-methyl-1H-pyrazol-1-yl)-3-azabicyclo[3.1.0]hexan-3-yl)-4-oxo-3,4-dihydroquinazolin-8-yl)ethyl)amino)-N-(methylsulfonyl) picolinamide], the IC50 is less than 250 nM in assay [1] (setting [5]) and 1000 to 5000 nM in assay [2] (setting [6]).

In the case of `Cc1cc([C@@H](C)Nc2ccc(Cl)nc2C(=O)NS(C)(=O)=O)c2nc(N3[C@@H]4CC[C@H]3C[C@@H](c3cnn(C)c3)C4)n(C)c(=O)c2c1` [Compound 297, 6-chloro-3-(((R)-1-(3,6-dimethyl-2-((1R,3R,5S)-3-(1-methyl-1H-pyrazol-4-yl)-8-azabicyclo[3.2.1]octan-8-yl)-4-oxo-3,4-dihydroquinazolin-8-yl)ethyl)amino)-N-(methylsulfonyl) picolinamide], the IC50 in assay [1] (setting [5]) was 250 to 500 nM; in assay [2] (setting [6]), not below 5000 nM.
